Activity calls are given as the source filed them. Cut-off read from the data, not from the text of the source, for most assays here: actives have a measured Kd and inactives only a lower limit.
Experiments:
[1] = target: RAC-alpha serine/threonine-protein kinase (Homo sapiens, UniProt P31749)
[2] = target: BMP-2-inducible protein kinase (Homo sapiens, UniProt Q9NSY1)
[3] = target: Tyrosine-protein kinase CSK (Homo sapiens, UniProt P41240)
[4] = target: Casein kinase II subunit alpha' (Homo sapiens, UniProt P19784)
[5] = target: Ephrin type-A receptor 5 (Homo sapiens, UniProt P54756)
[6] = target: Tyrosine-protein kinase Fer (Homo sapiens, UniProt P16591)
[7] = target: T1, Inhibitor of nuclear factor kappa-B kinase subunit epsilon (Homo sapiens, UniProt Q14164)
T1 sequence (Q14164 whole entry): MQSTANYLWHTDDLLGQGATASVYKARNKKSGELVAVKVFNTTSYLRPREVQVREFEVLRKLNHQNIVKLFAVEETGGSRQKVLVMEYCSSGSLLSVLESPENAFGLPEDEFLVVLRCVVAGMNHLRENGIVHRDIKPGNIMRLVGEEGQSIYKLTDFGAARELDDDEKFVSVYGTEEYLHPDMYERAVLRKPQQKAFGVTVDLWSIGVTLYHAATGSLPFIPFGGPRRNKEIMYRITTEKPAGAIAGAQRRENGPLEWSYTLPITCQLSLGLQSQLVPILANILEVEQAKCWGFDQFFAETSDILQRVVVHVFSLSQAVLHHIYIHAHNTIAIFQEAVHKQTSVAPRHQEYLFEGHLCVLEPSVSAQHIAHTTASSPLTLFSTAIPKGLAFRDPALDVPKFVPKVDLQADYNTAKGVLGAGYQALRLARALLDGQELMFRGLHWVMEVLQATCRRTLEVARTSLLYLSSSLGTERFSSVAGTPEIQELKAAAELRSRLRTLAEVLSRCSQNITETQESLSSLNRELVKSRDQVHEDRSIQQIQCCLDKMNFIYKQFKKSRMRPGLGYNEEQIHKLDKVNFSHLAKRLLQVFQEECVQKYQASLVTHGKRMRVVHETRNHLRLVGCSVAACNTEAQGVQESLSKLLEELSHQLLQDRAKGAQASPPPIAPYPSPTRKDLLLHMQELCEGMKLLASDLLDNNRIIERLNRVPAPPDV

[8] = target: MAP/microtubule affinity-regulating kinase 3 (Homo sapiens, UniProt P27448)
[9] = target: S-adenosylmethionine synthase isoform type-2 (Homo sapiens, UniProt P31153)
[10] = target: T2, Phosphorylase b kinase gamma catalytic chain, liver/testis isoform (Homo sapiens, UniProt P15735)
T2 sequence (P15735 whole entry): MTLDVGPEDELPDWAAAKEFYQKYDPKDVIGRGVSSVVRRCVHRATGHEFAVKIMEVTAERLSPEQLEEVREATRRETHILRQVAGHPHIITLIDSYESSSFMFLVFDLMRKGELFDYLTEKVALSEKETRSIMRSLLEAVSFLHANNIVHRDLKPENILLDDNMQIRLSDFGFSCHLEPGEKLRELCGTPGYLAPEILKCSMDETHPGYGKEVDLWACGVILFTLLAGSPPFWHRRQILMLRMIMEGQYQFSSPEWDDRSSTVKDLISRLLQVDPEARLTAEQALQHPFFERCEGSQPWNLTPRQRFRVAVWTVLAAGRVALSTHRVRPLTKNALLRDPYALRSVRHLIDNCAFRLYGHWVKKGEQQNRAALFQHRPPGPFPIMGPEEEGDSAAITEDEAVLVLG

[11] = target: T3, Membrane-associated tyrosine- and threonine-specific cdc2-inhibitory kinase (Homo sapiens, UniProt Q99640)
T3 sequence (Q99640 whole entry): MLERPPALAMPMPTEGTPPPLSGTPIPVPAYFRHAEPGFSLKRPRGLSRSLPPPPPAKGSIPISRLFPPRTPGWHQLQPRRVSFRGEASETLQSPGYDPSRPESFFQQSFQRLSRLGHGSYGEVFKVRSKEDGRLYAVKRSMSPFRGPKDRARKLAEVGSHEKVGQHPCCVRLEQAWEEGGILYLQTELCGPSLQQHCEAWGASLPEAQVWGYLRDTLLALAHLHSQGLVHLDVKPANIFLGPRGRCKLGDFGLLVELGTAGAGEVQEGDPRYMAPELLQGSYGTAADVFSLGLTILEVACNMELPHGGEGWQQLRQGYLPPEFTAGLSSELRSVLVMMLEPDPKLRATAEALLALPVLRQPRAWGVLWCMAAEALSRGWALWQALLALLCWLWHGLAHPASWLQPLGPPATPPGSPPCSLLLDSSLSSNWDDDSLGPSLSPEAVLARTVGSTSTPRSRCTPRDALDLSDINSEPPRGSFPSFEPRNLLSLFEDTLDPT

[12] = target: Rho-associated protein kinase 2 (Homo sapiens, UniProt O75116)
[13] = target: Proto-oncogene tyrosine-protein kinase Src (Homo sapiens, UniProt P12931)
[14] = target: Elongation factor Tu, mitochondrial (Homo sapiens, UniProt P49411)
[15] = target: Ephrin type-A receptor 7 (Homo sapiens, UniProt Q15375)
[16] = target: Serine/threonine-protein kinase pim-1 (Homo sapiens, UniProt P11309)
Note: in the data inactive means no Kd found up to 30 µM.

Chain of MAP/microtubule affinity-regulating kinase 3 (P27448 whole entry, canonical isoform): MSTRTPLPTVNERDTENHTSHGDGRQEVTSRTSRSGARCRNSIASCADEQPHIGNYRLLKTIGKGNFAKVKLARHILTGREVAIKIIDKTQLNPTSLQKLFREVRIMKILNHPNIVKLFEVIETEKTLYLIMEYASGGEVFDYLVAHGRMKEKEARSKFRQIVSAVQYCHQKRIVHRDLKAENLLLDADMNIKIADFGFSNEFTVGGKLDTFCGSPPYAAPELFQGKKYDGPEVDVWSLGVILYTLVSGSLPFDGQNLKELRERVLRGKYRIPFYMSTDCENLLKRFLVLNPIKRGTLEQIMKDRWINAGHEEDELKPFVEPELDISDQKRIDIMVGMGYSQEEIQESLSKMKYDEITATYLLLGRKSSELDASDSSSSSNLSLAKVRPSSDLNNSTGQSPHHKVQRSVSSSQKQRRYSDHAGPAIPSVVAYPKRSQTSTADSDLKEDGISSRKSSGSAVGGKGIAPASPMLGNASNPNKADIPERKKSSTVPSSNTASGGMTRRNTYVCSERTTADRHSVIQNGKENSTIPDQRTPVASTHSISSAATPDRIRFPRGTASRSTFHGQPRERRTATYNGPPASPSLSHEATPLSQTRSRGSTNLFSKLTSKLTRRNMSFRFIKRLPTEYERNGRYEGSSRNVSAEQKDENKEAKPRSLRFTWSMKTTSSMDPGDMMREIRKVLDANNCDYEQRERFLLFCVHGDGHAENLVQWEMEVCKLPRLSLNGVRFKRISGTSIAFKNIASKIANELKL
Chain of Proto-oncogene tyrosine-protein kinase Src (P12931 2-536 limits assumed): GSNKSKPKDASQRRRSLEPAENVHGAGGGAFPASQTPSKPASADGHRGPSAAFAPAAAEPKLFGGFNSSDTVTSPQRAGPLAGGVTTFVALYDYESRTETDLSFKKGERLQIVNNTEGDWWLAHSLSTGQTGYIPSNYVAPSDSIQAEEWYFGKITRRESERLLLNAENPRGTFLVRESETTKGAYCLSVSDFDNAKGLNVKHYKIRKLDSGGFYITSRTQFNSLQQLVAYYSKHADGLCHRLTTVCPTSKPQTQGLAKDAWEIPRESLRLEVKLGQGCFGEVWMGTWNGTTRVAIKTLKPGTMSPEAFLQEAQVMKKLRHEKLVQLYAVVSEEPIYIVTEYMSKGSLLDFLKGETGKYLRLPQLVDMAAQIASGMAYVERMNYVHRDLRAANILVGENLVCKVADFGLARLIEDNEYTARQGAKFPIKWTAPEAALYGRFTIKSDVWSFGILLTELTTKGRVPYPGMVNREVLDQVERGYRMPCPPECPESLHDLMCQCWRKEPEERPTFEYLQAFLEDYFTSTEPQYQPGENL
Chain of S-adenosylmethionine synthase isoform type-2 (P31153 whole entry, canonical isoform): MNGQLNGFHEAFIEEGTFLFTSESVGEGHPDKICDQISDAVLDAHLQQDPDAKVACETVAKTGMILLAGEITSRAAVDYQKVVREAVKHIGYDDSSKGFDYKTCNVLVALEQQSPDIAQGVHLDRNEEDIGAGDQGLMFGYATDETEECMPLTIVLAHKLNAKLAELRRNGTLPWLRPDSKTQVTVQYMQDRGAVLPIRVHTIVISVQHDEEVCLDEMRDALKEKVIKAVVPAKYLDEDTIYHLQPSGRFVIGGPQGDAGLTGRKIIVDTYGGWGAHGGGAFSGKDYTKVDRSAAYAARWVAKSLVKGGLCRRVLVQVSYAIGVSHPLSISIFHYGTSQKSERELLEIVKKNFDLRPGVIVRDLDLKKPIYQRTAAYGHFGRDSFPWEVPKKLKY
Chain of Tyrosine-protein kinase CSK (P41240 whole entry): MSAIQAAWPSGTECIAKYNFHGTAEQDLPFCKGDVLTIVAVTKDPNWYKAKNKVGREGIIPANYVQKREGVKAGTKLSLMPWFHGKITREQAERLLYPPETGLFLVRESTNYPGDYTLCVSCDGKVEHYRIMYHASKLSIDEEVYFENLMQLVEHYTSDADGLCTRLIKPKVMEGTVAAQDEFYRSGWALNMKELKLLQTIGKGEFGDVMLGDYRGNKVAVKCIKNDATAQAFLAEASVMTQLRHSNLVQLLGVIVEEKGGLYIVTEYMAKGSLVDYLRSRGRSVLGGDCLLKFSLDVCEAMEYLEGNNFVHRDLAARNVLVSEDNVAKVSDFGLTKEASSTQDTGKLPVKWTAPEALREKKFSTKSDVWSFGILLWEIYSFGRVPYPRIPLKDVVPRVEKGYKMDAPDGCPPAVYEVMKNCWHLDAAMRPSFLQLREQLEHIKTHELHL
Chain of Ephrin type-A receptor 7 (Q15375 whole entry): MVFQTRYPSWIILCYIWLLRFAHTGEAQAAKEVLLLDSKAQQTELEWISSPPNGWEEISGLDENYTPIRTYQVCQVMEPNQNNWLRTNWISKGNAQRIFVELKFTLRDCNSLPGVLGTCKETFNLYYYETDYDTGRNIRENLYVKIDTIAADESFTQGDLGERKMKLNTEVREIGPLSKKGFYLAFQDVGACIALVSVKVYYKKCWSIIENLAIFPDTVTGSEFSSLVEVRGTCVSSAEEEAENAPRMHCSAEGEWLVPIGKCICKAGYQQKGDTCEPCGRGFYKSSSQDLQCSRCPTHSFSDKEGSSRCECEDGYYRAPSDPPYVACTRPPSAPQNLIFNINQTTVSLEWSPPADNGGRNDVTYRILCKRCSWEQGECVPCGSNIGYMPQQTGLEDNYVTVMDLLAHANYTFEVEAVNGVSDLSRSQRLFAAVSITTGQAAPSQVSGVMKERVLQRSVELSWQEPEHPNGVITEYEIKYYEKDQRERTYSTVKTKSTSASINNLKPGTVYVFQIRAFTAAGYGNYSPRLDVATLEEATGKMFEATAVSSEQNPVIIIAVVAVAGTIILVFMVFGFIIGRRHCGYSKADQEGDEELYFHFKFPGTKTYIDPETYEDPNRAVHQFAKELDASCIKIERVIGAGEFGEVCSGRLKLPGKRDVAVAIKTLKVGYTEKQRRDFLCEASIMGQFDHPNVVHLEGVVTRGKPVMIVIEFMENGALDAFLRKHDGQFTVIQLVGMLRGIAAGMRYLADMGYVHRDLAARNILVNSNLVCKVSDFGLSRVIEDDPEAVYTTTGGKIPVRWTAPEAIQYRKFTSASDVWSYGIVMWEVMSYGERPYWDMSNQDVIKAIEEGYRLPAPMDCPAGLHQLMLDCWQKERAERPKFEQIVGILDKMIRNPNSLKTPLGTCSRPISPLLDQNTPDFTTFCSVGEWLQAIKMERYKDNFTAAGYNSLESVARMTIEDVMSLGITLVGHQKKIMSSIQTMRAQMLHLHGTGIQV
Chain of BMP-2-inducible protein kinase (Q9NSY1 whole entry): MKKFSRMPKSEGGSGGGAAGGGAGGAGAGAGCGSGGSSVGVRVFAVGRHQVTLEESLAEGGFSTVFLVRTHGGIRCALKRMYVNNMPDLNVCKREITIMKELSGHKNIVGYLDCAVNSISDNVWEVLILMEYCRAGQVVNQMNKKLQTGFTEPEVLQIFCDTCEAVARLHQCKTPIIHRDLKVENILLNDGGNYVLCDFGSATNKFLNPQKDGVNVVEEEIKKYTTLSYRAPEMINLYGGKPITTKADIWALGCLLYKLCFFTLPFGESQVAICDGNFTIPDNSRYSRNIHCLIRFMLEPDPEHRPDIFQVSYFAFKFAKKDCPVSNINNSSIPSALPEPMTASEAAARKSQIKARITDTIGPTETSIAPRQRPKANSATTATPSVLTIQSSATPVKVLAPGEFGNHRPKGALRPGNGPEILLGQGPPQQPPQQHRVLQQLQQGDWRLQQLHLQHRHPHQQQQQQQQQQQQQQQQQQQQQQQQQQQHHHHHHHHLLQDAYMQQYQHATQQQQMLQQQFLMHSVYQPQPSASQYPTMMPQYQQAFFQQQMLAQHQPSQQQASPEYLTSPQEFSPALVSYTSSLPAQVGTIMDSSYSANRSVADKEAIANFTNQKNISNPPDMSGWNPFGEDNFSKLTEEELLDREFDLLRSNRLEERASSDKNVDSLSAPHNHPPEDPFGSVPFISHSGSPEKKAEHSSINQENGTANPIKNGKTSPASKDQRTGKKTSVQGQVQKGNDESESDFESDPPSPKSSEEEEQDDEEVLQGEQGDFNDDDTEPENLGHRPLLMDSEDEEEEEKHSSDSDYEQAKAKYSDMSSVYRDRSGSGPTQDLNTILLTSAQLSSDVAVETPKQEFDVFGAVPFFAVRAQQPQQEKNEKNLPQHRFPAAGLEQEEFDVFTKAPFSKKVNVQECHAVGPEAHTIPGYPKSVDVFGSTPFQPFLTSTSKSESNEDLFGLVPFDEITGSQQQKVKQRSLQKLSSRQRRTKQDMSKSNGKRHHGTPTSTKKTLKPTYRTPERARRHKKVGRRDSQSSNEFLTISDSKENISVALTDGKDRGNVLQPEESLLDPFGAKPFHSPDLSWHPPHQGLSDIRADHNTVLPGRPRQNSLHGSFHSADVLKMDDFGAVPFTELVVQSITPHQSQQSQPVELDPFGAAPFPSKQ
Chain of RAC-alpha serine/threonine-protein kinase (P31749 whole entry): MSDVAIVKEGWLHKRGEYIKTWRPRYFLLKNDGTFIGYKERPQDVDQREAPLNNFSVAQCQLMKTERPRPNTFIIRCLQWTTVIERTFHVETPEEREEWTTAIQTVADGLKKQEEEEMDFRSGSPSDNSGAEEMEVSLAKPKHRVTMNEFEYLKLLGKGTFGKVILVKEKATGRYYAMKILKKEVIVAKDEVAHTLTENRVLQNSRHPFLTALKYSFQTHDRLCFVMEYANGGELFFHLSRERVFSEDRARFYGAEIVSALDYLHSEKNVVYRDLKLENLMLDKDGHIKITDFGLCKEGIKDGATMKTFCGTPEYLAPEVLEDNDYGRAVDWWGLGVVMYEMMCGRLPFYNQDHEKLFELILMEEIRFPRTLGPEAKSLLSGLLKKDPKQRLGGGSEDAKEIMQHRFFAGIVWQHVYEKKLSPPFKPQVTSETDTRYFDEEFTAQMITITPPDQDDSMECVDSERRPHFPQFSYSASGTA

Compound | Kd [1] | Kd [2] | Kd [3] | Kd [4] | Kd [5] | Kd [6] | Kd [7] | Kd [8] | Kd [9] | Kd [10] | Kd [11] | Kd [12] | Kd [13] | Kd [14] | Kd [15] | Kd [16]
CCN1CCN(Cc2ccc(Nc3ncc(F)c(-c4cc(F)c5nc(C)n(C(C)C)c5c4)n3)nc2)CC1 [ABEMACICLIB] | > 30 µM (inactive) | 56 µM (active) | > 30 µM (inactive) | 0.019 µM (active) | > 30 µM (inactive) | > 30 µM (inactive) | > 30 µM (inactive) | > 30 µM (inactive) | > 30 µM (inactive) | > 30 µM (inactive) | > 30 µM (inactive) | > 30 µM (inactive) | > 30 µM (inactive) | > 30 µM (inactive) | – | –
C=CCn1c(=O)c2cnc(Nc3ccc(N4CCN(C)CC4)cc3)nc2n1-c1cccc(C(C)(C)O)n1 [ADAVOSERTIB] | > 30 µM (inactive) | > 30 µM (inactive) | > 30 µM (inactive) | 0.412 µM (active) | > 30 µM (inactive) | > 30 µM (inactive) | – | > 30 µM (inactive) | > 30 µM (inactive) | > 30 µM (inactive) | – | > 30 µM (inactive) | > 30 µM (inactive) | > 30 µM (inactive) | > 30 µM (inactive) | –
CN(C)C/C=C/C(=O)Nc1cc2c(Nc3ccc(F)c(Cl)c3)ncnc2cc1O[C@H]1CCOC1 [AFATINIB] | – | – | – | – | – | – | – | – | > 30 µM (inactive) | – | – | – | – | > 30 µM (inactive) | – | –
CCN(CCCOc1ccc2c(Nc3cc(CC(=O)Nc4cccc(F)c4)n[nH]3)ncnc2c1)CCOP(=O)(O)O [BARASERTIB] | > 30 µM (inactive) | > 30 µM (inactive) | > 30 µM (inactive) | 1.95 µM | > 30 µM (inactive) | > 30 µM (inactive) | – | – | > 30 µM (inactive) | > 30 µM (inactive) | > 30 µM (inactive) | – | > 30 µM (inactive) | > 30 µM (inactive) | > 30 µM (inactive) | –
COc1ccc(-c2ccc3ncc4c(c3c2)n(-c2ccc(N3CCNCC3)c(C(F)(F)F)c2)c(=O)n4C)cn1 [BGT-226 FREE BASE] | > 30 µM (inactive) | > 30 µM (inactive) | > 30 µM (inactive) | 8.49 µM (active) | > 30 µM (inactive) | > 30 µM (inactive) | > 30 µM (inactive) | > 30 µM (inactive) | > 30 µM (inactive) | > 30 µM (inactive) | > 30 µM (inactive) | > 30 µM (inactive) | > 30 µM (inactive) | > 30 µM (inactive) | – | > 30 µM (inactive)
C[C@@]1(C(=O)Nc2ccc(F)nc2)CCCN1c1nc(Nc2cc(C3CC3)n[nH]2)c2cccn2n1 [BMS-754807] | – | – | – | – | – | – | – | – | > 30 µM (inactive) | – | – | – | – | > 30 µM (inactive) | – | –
COc1cc2c(Oc3ccc4[nH]c(C)cc4c3F)ncnc2cc1OCCCN1CCCC1 [CEDIRANIB] | – | – | – | – | – | – | – | – | > 30 µM (inactive) | – | – | – | > 30 µM (inactive) | > 30 µM (inactive) | – | –
Cn1c(=O)n(-c2ccc(C(C)(C)C#N)cc2)c2c3cc(-c4cnc5ccccc5c4)ccc3ncc21 [DACTOLISIB] | – | > 30 µM (inactive) | > 30 µM (inactive) | > 30 µM (inactive) | > 30 µM (inactive) | > 30 µM (inactive) | – | – | > 30 µM (inactive) | > 30 µM (inactive) | > 30 µM (inactive) | > 30 µM (inactive) | > 30 µM (inactive) | > 30 µM (inactive) | > 30 µM (inactive) | –
O=S(=O)(c1cccc2cnccc12)N1CCCNCC1 [FASUDIL] | – | – | > 30 µM (inactive) | > 30 µM (inactive) | > 30 µM (inactive) | > 30 µM (inactive) | – | > 30 µM (inactive) | > 30 µM (inactive) | > 30 µM (inactive) | > 30 µM (inactive) | 0.943 µM (active) | – | > 30 µM (inactive) | > 30 µM (inactive) | –
C[C@]1(O)C[C@@H](c2nc(-c3ccc4ccc(-c5ccccc5)nc4c3)c3c(N)nccn32)C1 [LINSITINIB] | – | > 30 µM (inactive) | > 30 µM (inactive) | > 30 µM (inactive) | > 30 µM (inactive) | – | > 30 µM (inactive) | – | > 30 µM (inactive) | – | > 30 µM (inactive) | – | – | > 30 µM (inactive) | > 30 µM (inactive) | –
O=C(NOC[C@H](O)CO)c1ccc(F)c(F)c1Nc1ccc(I)cc1F [MIRDAMETINIB] | > 30 µM (inactive) | > 30 µM (inactive) | > 30 µM (inactive) | > 30 µM (inactive) | > 30 µM (inactive) | > 30 µM (inactive) | > 30 µM (inactive) | > 30 µM (inactive) | – | > 30 µM (inactive) | > 30 µM (inactive) | > 30 µM (inactive) | > 30 µM (inactive) | > 30 µM (inactive) | – | > 30 µM (inactive)
CC1(C)CNc2cc(NC(=O)c3cccnc3NCc3ccncc3)ccc21 [MOTESANIB] | – | – | – | – | – | – | – | – | > 30 µM (inactive) | – | – | – | – | > 30 µM (inactive) | – | –
CN(c1ncccc1CNc1nc(Nc2ccc3c(c2)CC(=O)N3)ncc1C(F)(F)F)S(C)(=O)=O [PF-00562271] | – | – | > 30 µM (inactive) | 0.998 µM (active) | > 30 µM (inactive) | – | – | – | > 30 µM (inactive) | – | > 30 µM (inactive) | – | – | > 30 µM (inactive) | – | –
CC(C)CC(=O)Nc1[nH]nc2c1CN(C(=O)C1CCN(C)CC1)C2(C)C [PHA-793887] | > 30 µM (inactive) | > 30 µM (inactive) | > 30 µM (inactive) | > 30 µM (inactive) | > 30 µM (inactive) | – | > 30 µM (inactive) | > 30 µM (inactive) | > 30 µM (inactive) | 1 µM (active) | > 30 µM (inactive) | > 30 µM (inactive) | > 30 µM (inactive) | > 30 µM (inactive) | – | > 30 µM (inactive)
Cn1cnc2c(F)c(Nc3ccc(Br)cc3Cl)c(C(=O)NOCCO)cc21 [SELUMETINIB] | – | – | – | – | – | – | – | – | > 30 µM (inactive) | – | – | – | – | > 30 µM (inactive) | – | –
O=C(O)c1ccc2c(c1)nc(Nc1cccc(Cl)c1)c1ccncc12 [SILMITASERTIB] | > 30 µM (inactive) | > 30 µM (inactive) | > 30 µM (inactive) | – | > 30 µM (inactive) | > 30 µM (inactive) | > 30 µM (inactive) | > 30 µM (inactive) | > 30 µM (inactive) | 3.5 µM (active) | > 30 µM (inactive) | > 30 µM (inactive) | > 30 µM (inactive) | > 30 µM (inactive) | > 30 µM (inactive) | –
COc1cc2c(N3CCN(C(=O)Nc4ccc(OC(C)C)cc4)CC3)ncnc2cc1OCCCN1CCCCC1 [TANDUTINIB] | – | – | – | – | – | – | – | – | > 30 µM (inactive) | – | – | – | – | > 30 µM (inactive) | – | –

From ChEMBL document CHEMBL3991601, “The target landscape of clinical kinase drugs” (Science, 2017)
